From the SangsterLogP compilation

What was measured:
[1] = not given; remark: listed apart in the source
[2] = method code SF-HPLC, from DOI: 10.1016/0378-5173(92)90116-j; details: pH 7.4
[3] = method code SF-AS, from DOI: 10.1135/cccc19881862
[4] = not given; remark: listed apart in the source
[5] = method code SF-AS, from DOI: 10.1080/10826076.2011.619030
[6] = method code SF-AS, from DOI: 10.1021/jm00371a026, PMID: 6425501; details: pH 7.4
[7] = method code SF-AS, from Kourounakis, P.; Chilliard, N. (1983). Ionization constants and partition coefficients of some 1,1-diphenyl-1-alkoxy-3-dialkylamino-2-propanones with analgesic activity. Pharmazie, 38(6)388-389.; details: pH 7.4
[8] = method code SF-AS, from DOI: 10.1016/0048-3575(88)90061-2
[9] = not given; remark: listed apart in the source
[10] = from Wadhwa, L.; Chandiran, S.; Sharma, P. (2004). Alkyl esters of 6-methoxy-2-naphthylacetic acid as potential prodrugs - Synthesis, physicochemical properties, chemical stability and enzymatic …; details: pH 7.4
[11] = method code SF-AS, from DOI: 10.1006/pest.1994.1014
[12] = method code SF, from DOI: 10.1016/j.bmc.2005.05.004, PMID: 15946850; details: pH 7.4
[13] = not given; remark: listed apart in the source
[14] = not given; remark: listed apart in the source
[15] = method code SF-RC, from DOI: 10.1002/ps.2780410303
[16] = not given; remark: listed apart in the source
[17] = not given; remark: listed apart in the source
[18] = method code SF-HPLC, from DOI: 10.1002/etc.5620081103
[19] = method code SF-AS, from PMID: 5136171

O=C(CCCN1CCC(C(O)(c2ccccc2)c2ccccc2)CC1)c1ccccc1
logP: 4.42

CC(=O)C1(O)Cc2c(O)c3c(c(O)c2C(OC2CC(N)C(O)C(C)O2)C1)C(=O)c1ccccc1C3=O (configuration not stated)
logP [1]: 0.68

CCC(C(=O)OCCCCOC(=O)C(CC)C(CO)Cc1cncn1C)C(CO)Cc1cncn1C (configuration not stated)
logD [2]: 1.16

COc1ccc(COC(C(=O)O)c2ccccc2)cc1Cl (configuration not stated)
logD ([3]; pH 3.4): 2.45

CCC(C(=O)OCCCOC(=O)C(CC)C(CO)Cc1cncn1C)C(CO)Cc1cncn1C (configuration not stated)
logD [2]: 0.68

O=c1[nH]ccc2c(Nc3c(Cl)cc(C(O)C(F)F)cc3Cl)nc3ccncc3c12 (configuration not stated)
logP [4]: 1.46

CC1(C)OC2C(COC(=O)c3ccccc3)OC(n3ccc(=O)[nH]c3=O)C2O1 (configuration not stated)
logP [5]: 1.29

COc1cccc2c1C(=O)c1c(O)c3c(c(O)c1C2=O)C[C@@](O)(C(=O)CO)C[C@@H]3O[C@H]1C[C@H](N)C[C@H](C)O1
logP [1]: 0.01

CO[C@@]12[C@H](COC(N)=O)C3=C(C(=O)C(C)=C(Nc4nc(C)c(C)s4)C3=O)N1C[C@@H]1N[C@@H]12
logD [6]: 1.29

CC#CCOC(C(=O)CN(C)C)(c1ccccc1)c1ccccc1
logD [7]: 0.85

O=C(NC(=O)c1c(F)cccc1F)Nc1ccc(Oc2ncc(Cl)cc2C(F)(F)F)cc1
logP [8]: 3.5

OC1(c2ccc(I)cc2)c2ccccc2C2=NCCN21 (configuration not stated)
logP [9]: 2.2

COc1ccc2cc(CC(=O)OCC(C)C)ccc2c1
logD [10]: 4.71

CC(C)(C)N(NC(=O)c1cccc(F)c1)C(=O)c1ccccc1Cl
logP [11]: 2.88

O=C(NC(=O)c1c(F)cccc1F)Nc1ccc(Oc2ccc(C(F)(F)F)cn2)cc1
logP [8]: 2.8

COc1ccc2cc(CC(=O)OC(C)C)ccc2c1
logD [10]: 4

CCC(C(=O)OCCCCCCOC(=O)C(CC)C(CO)Cc1cncn1C)C(CO)Cc1cncn1C (configuration not stated)
logD [2]: 1.84

CO[C@@]12[C@H](COC(N)=O)C3=C(C(=O)C(C)=C(Nc4ccccc4)C3=O)N1C[C@@H]1N[C@@H]12
logD [6]: 1.3

CCOC(C(=O)CN1CCOCC1)(c1ccccc1)c1ccccc1
logD [7]: 1.08

CO[C@@]12[C@@H]3N[C@@H]3CN1C1=C(C(=O)C(Nc3nc(C)cs3)=C(C)C1=O)[C@@H]2COC(N)=O
logD [6]: 1.16

Cc1cccc(C(=O)NN(C(=O)c2ccccc2Cl)C(C)(C)C)c1
logP [11]: 3.11

N#Cc1nonc1-c1ccc(OCCCc2c[nH]cn2)cc1
logD [12]: 3.04

CCCOC(=O)Cc1ccc2cc(OC)ccc2c1
logD [10]: 4.14

CCC(c1c(O)c2ccccc2oc1=O)c1c(O)c2ccccc2oc1=O
logP [13]: 2.02

Cc1ccc(Cc2cnc(NCCCCc3ncc(Br)cc3C)[nH]c2=O)cn1
logP: 3.19

CC(C)(C)c1ccc(C(O)CCCN2CCC(C(O)c3ccccc3)CC2)cc1 (configuration not stated)
logP: 4.06

O=C(O)C(OCc1ccccc1)c1ccccc1 (configuration not stated)
logD ([3]; pH 3.4): 2

CC1(C)OC2C(COC3CC(O)C(O)C(CO)O3)OC(n3ccc(=O)n(Cc4ccccc4)c3=O)C2O1 (configuration not stated)
logP [5]: 0.59

OC1(c2cccc(F)c2)c2ccccc2C2=NCCN21 (configuration not stated)
logP [9]: 1.28

O=c1oc2ccccc2c(O)c1C(c1ccccc1)c1c(O)c2ccccc2oc1=O
logP [13]: 1.95

CC(C)(C)N(NC(=O)c1ccccc1F)C(=O)c1ccccc1Cl
logP [11]: 2.63

O=c1[nH]ccc2c(Nc3c(F)cc(F)cc3Cl)nc3ccncc3c12
logP [4]: 1.75

CC1CCC2C(C)C(OC3OC(C(=O)O)C(O)C(O)C3O)OC3OC4(C)CCC1C32OO4 (configuration not stated)
logP [14]: 1.08

CC(C)C1(C)N=C(c2ncc(S(C)(=O)=O)cc2C(=O)O)NC1=O (configuration not stated)
logD ([15]; pH 2.0): -0.05

COC1C(N)CC(OC2CC(O)(C(=O)CO)Cc3c(O)c4c(c(O)c32)C(=O)c2ccccc2C4=O)OC1C (configuration not stated)
logP [1]: 0.39

O=C(NN(C(=O)c1ccc([N+](=O)[O-])cc1)c1ccccc1)c1ccc([N+](=O)[O-])cc1
logP [16]: 4.18

CO[C@@]12[C@H](COC(N)=O)C3=C(C(=O)C(C)=C(Nc4ccc(C)nc4)C3=O)N1C[C@@H]1N[C@@H]12
logD [6]: 0.59

CC(C)C1(C)N=C(c2ncc(CO)cc2C(=O)O)NC1=O (configuration not stated)
logD ([15]; pH 2.5): -0.21

CC1(C)SC2C(NC(O)c3ccccc3)C(=O)N2C1C(=O)O (configuration not stated)
logP [17]: 1.4

CCOC1OC2OC3(C)CCC4C(OC5OC(C(=O)O)C(O)C(O)C5O)CCC(C1C)C24OO3 (configuration not stated)
logP [14]: 1.05

CCOC(=O)C(c1c(O)c2ccccc2oc1=O)c1c(O)c2ccccc2oc1=O
logP [13]: 1.32

CC(=O)OCCN(CCC#N)c1ccc(/N=N/c2nc3ccc([N+](=O)[O-])cc3s2)cc1
logP [18]: 4.6

CC(C)(C)N(NC(=O)c1cccc(Cl)c1)C(=O)c1ccccc1Cl
logP [11]: 3.49

CCOC1OC2OC3(C)C=C(O)C4C(C)CCC(C1C)C24OO3 (configuration not stated)
logP [14]: 2.7

C#CCOC(C(=O)CN(C)C)(c1ccccc1)c1ccccc1
logD [7]: 0.7

CC1(C)OC2C(COC3CC(O)C(O)C(CO)O3)OC(n3ccc(=O)n(C(=O)c4ccccc4)c3=O)C2O1 (configuration not stated)
logP [5]: 0.13

CSc1cnc(C2=NC(C)(C(C)C)C(=O)N2)c(C(=O)O)c1 (configuration not stated)
logD ([15]; pH 2.8): 0.75

CC1(C)SC2C(NC(=O)CCOc3ccccc3)C(=O)N2C1C(=O)O (configuration not stated)
logP [17]: 2.28

O=c1[nH]ccc2c(Nc3c(Cl)cc(C4=NNCC4)cc3Cl)nc3ccncc3c12
logP [4]: 1.43

OC1(c2ccc(F)cc2)c2ccccc2C2=NCCN21 (configuration not stated)
logP [9]: 0.95

CC(=O)C1(O)Cc2c(O)c3c(c(O)c2C(OC2CC(N)C(O)C(C)O2)C1)C(=O)c1c(O)cccc1C3=O (configuration not stated)
logP [1]: 0.96

OC1(c2ccc(Br)cc2)c2ccccc2C2=NCCN21 (configuration not stated)
logP [9]: 1.9

CCOC1OC2OC3(C)CC(OC4OC(C(=O)O)C(O)C(O)C4O)C4C(C)CCC(C1C)C24OO3 (configuration not stated)
logP [14]: 1.73

N#Cc1c(-c2ccc(OCCCc3c[nH]cn3)cc2)no[n+]1[O-]
logD [12]: 2.99

CCC(C(=O)OCc1cccc(COC(=O)C(CC)C(CO)Cc2cncn2C)c1)C(CO)Cc1cncn1C (configuration not stated)
logD [2]: 1.99

COc1cc(N=Nc2c(Br)cc([N+](=O)[O-])cc2Br)c(NC(C)=O)cc1N(CCOC(C)=O)CCOC(C)=O
logP [18]: 4.8

CC1(C)OC2C(COC3CC(O)C(O)C(CO)O3)OC(n3ccc(=O)[nH]c3=O)C2O1 (configuration not stated)
logP [5]: -1.56

[O-][n+]1onc(-c2ccc(OCCCc3c[nH]cn3)cc2)c1CO
logD [12]: 1.83

O=C(NC(=O)c1c(F)cccc1F)Nc1ccc(Oc2ncc(C(F)(F)F)cc2Cl)cc1
logP [8]: 3.53

O=C(NC(=O)c1c(F)cccc1F)Nc1ccc(Oc2ccccn2)cc1
logP [8]: 1.57

CCOC(=O)Cc1ccc2cc(OC)ccc2c1
logD [10]: 3.04

CCOC(=O)c1cnc2cc(OCC(C)C)c(OCC(C)C)cc2c1O
logP [19]: 2.18

Cc1ncc2c(c1O)COC2c1ccc(Cl)cc1 (configuration not stated)
logP: 2.34

O=C(O)CCC(=O)c1ccc(-c2ccc(-c3ccccc3)cc2)cc1
logD ([3]; pH 3.5): 3.2

CCOC(=O)c1cnc2cc(OCCOC(C)C)c(OCC(C)C)cc2c1O
logP [19]: 2.17

CC(O)c1cc(Cl)c(Nc2nc3ccncc3c3c(=O)[nH]ccc23)c(Cl)c1 (configuration not stated)
logP [4]: 1.2

OCc1nonc1-c1ccc(OCCCc2c[nH]cn2)cc1
logD [12]: 1.96

CC1(C)S[C@@H]2[C@H](NC(=O)Cc3ccccc3)C(=O)N2[C@H]1C(=O)O
logP [17]: 1.83

CCOC(=O)c1cnc2cc(OCc3ccccc3)c(OCCOC)cc2c1O
logP [19]: 1.95

C=CCN(CCC#N)c1cc(NC(C)=O)c(/N=N/c2c(Br)cc([N+](=O)[O-])cc2[N+](=O)[O-])cc1OC
logP [18]: 5.4

CCOC(=O)c1cnc2cc(OCCOC)c(OC)cc2c1O
logP [19]: 1.36

COCC(c1c(O)c2ccccc2oc1=O)c1c(O)c2ccccc2oc1=O
logP [13]: 1.38

CCCOC(C(=O)CN(C)C)(c1ccccc1)c1ccccc1
logD [7]: 1.73

COc1cccc(OC)c1C(=O)N[C@@H]1C(=O)N2[C@@H]1SC(C)(C)[C@@H]2C(=O)O
logP [17]: 1.22

CCCc1cnc(C2=NC(C)(C(C)C)C(=O)N2)c(C(=O)O)c1 (configuration not stated)
logD ([15]; pH 2.8): 1.27

O=C(O)CCCC(=O)c1ccc(-c2ccc(-c3ccccc3)cc2)cc1
logD ([3]; pH 3.5): 3.35

O=C1C(c2nc3ccccc3cc2O)=C(O)c2ccccc21
logP [18]: 5
